Measured values published in US20070265240A1, “Sequence Selective Pyrrole and Imidazole Polyamide Metallocomplexes” (priority 2003, published 2007).

What was measured:
[1] = test system: relaxed and negatively supercoiled pUC19 DNA; settings: value reported for cisplatin; cited from earlier work
[2] = test system: d(CATTGTCAGAC)2 (target site); test: CD titration, affinity constant for target-site duplex; format: binding; settings: derived from CD titrations; 5 μM duplex DNA, 10 mM sodium phosphate pH 7.0, 40 mM NaCl, room temperature
Experimental: (§1) The changes are generally monitored until saturation is reached. The equilibrium constant can be determined using standard techniques, such as Scatchard plot, the McGhee Von Hippel model, or least squares, for analysis.
(§2) All CD measurements were recorded on a Jasco J-810 CD spectropolarimeter at room temperature and cell length of 1 cm. Titrations were performed by incrementally adding aliquots of Im/Py/Py-Pt to a 2600 μL solution of 5 μM duplex DNA. After each addition, an average CD spectrum from 240 to 400 nm (20 accumulations) was recorded. DNA concentration was 5 μM. The concentration of Im/Py/Py-Pt ranged from 0 to 10 μM. Solution conditions were 10 mM sodium phosphate (pH 7.0) and 40 mM NaCl.

[3] = test system: d(CATTGACAGAC)2 (single mismatch site); test: CD titration, affinity constant for single-mismatch duplex; format: binding; settings: derived from CD titrations; 5 μM duplex DNA, 10 mM sodium phosphate pH 7.0, 40 mM NaCl, room temperature
Experimental: as §1, §2

[4] = test system: d(CATTGAGAGAC)2 (double mismatch site); test: CD titration, affinity constant for double-mismatch duplex; format: binding; settings: derived from CD titrations; 5 μM duplex DNA, 10 mM sodium phosphate pH 7.0, 40 mM NaCl, room temperature
Experimental: as §1, §2

[5] = test system: recombinant pSP64 derivative; test: In vitro transcription assay (inhibition of RNA synthesis); format: biochemical; settings: increasing molar concentration; after 12 hour platination in the dark at 4° C.; 40 mM Tris-HCl pH 7.9
Experimental: FIG. 5—In vitro Transcription Assay “trans-Im/Py/Py-[CONH(CH2)2—NH2)Pt(NH3)2Cl” (“DJ1953-2”) The Inhibition of RNA synthesis by DJ1953-2 was assessed using a recombinant pSP64 derivative. Incubations were carried out in 40 mM Tris-HCl (pH 7.9), 6 mM MgCl2, 2 mM spermidine, 10 mM NaCl. Lane (1) 100-500 bases RNA marker; (2) to (8) increasing molar concentration of DJ1953-2. […] Experiments were conducted after 12 hour platination reactions (in the dark at 4° C.).
The Inhibition of RNA synthesis by DJ1953-2 was assessed using a recombinant pSP64 derivative. Incubations were carried out in 40 mM Tris-HCl (pH 7.9), 6 mM MgCl2, 2 mM spermidine, 10 mM NaCl. Lane (1) 100-500 bases RNA marker; Lanes (2) to (8) increasing molar concentration of DJ1953-2. […] Experiments were conducted after 12 hour platination reactions (in the dark at 4° C.).

[6] = test system: relaxed and negatively supercoiled pUC19 DNA; test: DNA unwinding experiment by gel electrophoresis; format: binding; settings: pUC19 plasmid incubated 1.5 hr at 37° C., rb 0-0.074
Experimental: Lanes: 0 Control rb=0; 1, rb=0.008; 2, rb=0.0.016; 3, rb=0.025; 4, rb=0.033; 5, rb=0.041; 6, rb=0.049; 7, rb=0.057; 8, rb=0.066; 9, rb=0.074.
The unwinding angle was determined to be 13° for this experiment, which is the same as that reported for cisplatin (13°). The plasmid was incubated with Im/Py/Py-Pt for 1.5 hr at 37° C. Lanes: 0 Control rb=0; 1, rb=0.008; 2, rb=0.0.016; 3, rb=0.025; 4, rb=0.033; 5, rb=0.041; 6, rb=0.049; 7, rb=0.057; 8, rb=0.066; 9, rb=0.074. The top bands correspond to the form of nicked plasmid and the bottom bands to the closed, negatively supercoiled plasmid shown in FIG. 4.

For `N.N.[Cl][Pt][Cl]` [cisplatin, cis-diamminedichloroplatinum(II)], the “unwinding angle (reported)” value [1] is given as 13 °.

With `Cn1cc(NC(=O)c2cc(NC(=O)c3nccn3C)cn2C)cc1C(=O)NCCCCCC[NH][Pt]([NH2])([NH2])[Cl]` [DJ-1953-6, trans-Im/Py/Py-[CONH(CH2)6—NH2)Pt(NH3)2Cl] the “apparent first-order affinity constant K for binding site d(CATTGTCAGAC)2” value [2] was 2.4 × 10^6 (0.1) M^−1, the “apparent first-order affinity constant K for binding site d(CATTGACAGAC)2” value [3] was 4.4 × 10^5 (0.2) M^−1 and the “apparent first-order affinity constant K for binding site d(CATTGAGAGAC)2” value [4] was 1.3 × 10^6 (0.1) M^−1.

In the case of “tans-Im/Py/Py-[CONH(CH2)2—NH2)Pt(NH3)2Cl [DJ-1953-2]”, the “apparent first-order affinity constant K for binding site d(CATTGTCAGAC)2” value [2] is reported as 1.2 × 10^6 (0.1) M^−1, the “apparent first-order affinity constant K for binding site d(CATTGACAGAC)2” value [3] is reported as 5.6 × 10^5 (0.2) M^−1 and the “apparent first-order affinity constant K for binding site d(CATTGAGAGAC)2” value [4] is reported as 3.0 × 10^5 (0.1) M^−1. For the same compound, the “inhibition of RNA synthesis (full-length transcript, 335 bases)” value [5] was “inhibition of the full-length transcript (FLT) can be seen”.

Compound trans-Im/Py/Py-Pt(Cl)(NH3)2 has an unwinding angle [6] of 13 °.
